The values that follow come from US8796328B2, “TRPV1 antagonists” (AbbVie Inc., priority 2012, dated 2014).

Assay [1] deals with T1, human TRPV1 receptor (hTRPV1) (Homo sapiens (Human), UniProt Q8NER1). Description: Acid activation assay (pH 5.0, FLIPR intracellular Ca2+). The conditions noted are these: Table 2; 37.5 μM compound; percentage of maximal pH 5.0-induced response. Format: cell-based.
The subject of another assay is rats. The assay is described as follows: Rat tail immersion assay (noxious thermosensation, 55° C. water bath). The format is in vivo. Particulars: rat, relative to vehicle. How it is done:
Compounds were tested for their effects on noxious thermosensation using the tail immersion assay. Testing was performed one hour following oral administration of 100 μmol/kg of the compound in 10% ethanol/20% Tween-80/70% PEG-400 (2 mL/kg). Mophine (6 mg/kg) was administered interperitoneally (i.p.) using saline (2 mL/kg) as the vehicle. For testing, a circulating water bath was heated to 55° C. Thirty to sixty minutes post dosing, the rats were handled for a few seconds to calm them down and then cupped with their back against the testers hand at a slight angle with head facing away from tester. With rat in one hand and a 0.01 second stopwatch in the other hand, the tail was quickly immersed 6-8 cm in water bath or to a distance leaving 2-3 cm of tail out of water. The timer was started simultaneously. When the rat flinched or attempted withdrawal, timer was immediately stopped and the rat's tail was quickly removed from water bath. This response latency (in seconds) was recorded. Process was repeated 3 times with 3-4 minutes between readings for a final average.
For a given example, a percent increase in the average response latency (in seconds) for tail withdrawal relative to a vehicle control was determined % increase=[(tc−tv)/tv]×100%
tc=response time (in seconds) with oral dosing of compounds
tv=response time (in seconds) with oral dosing of vehicle
The % increases in tail withdrawal latency relative to vehicle control are divided into the following categories: […]

Assay [2] concerns the target T1, human TRPV1 receptor (hTRPV1). Description: Capsaicin activation assay (FLIPR intracellular Ca2+). The format is cell-based. The conditions noted are these: Table 2; capsaicin-induced intracellular Ca2+ increase; read-out: human TRPV1 capsaicin IC50. The gist of the method: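 Recombinant HEK293 cells stably expressing hTRPV1, Calcium-4 dye loaded 90–120 min at room temperature, were preincubated with compound (12-point, one-third-log) for 3 min before capsaicin challenge. Peak FLIPR fluorescence minus baseline was normalised to capsaicin control response; IC50 from four-parameter logistic fit.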

Setting [3] is: oral 100 μmol/kg, one hour post dosing.

pIC50: −log10 of the molar value.

T1 sequence (Q8NER1 whole entry): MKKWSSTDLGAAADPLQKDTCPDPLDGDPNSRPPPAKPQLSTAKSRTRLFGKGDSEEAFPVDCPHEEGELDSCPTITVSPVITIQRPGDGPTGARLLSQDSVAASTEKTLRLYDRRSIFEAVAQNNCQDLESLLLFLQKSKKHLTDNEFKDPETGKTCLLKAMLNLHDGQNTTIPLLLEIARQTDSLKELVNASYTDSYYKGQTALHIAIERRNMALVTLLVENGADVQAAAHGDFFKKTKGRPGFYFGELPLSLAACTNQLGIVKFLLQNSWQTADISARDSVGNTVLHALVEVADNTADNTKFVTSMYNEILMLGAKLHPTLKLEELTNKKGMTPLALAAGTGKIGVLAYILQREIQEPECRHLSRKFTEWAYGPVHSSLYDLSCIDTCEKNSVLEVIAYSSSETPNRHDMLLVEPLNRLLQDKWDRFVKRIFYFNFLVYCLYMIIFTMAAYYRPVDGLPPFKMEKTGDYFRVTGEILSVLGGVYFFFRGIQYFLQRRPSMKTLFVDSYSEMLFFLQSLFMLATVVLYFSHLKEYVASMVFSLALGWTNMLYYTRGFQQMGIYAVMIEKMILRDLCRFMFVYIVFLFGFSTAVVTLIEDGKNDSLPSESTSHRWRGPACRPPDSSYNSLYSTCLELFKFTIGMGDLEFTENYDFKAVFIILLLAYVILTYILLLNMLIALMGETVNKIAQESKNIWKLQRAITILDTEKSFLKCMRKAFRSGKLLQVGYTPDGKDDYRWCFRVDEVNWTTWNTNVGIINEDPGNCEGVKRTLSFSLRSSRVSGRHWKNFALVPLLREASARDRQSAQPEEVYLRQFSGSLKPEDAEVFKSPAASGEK

On to `CC(C)(C)c1ccc(Nc2ncnc3cc(-c4ncccc4C(F)(F)F)ccc23)cc1` [B, reference compound], for which, in assay [1], the “human TRPV1 H+ (max % remain)” value is given as 1%. Moreover, in the assay on rats (setting [3]), the “% Increase in Tail Withdrawal Latency” value is given as “+++ (greater than or equal to 25% increase)”.

`CC(=O)Nc1nc2c(Oc3cc(-c4ccc(C(F)(F)F)cc4)ncn3)cccc2s1` [A, reference compound]: the “human TRPV1 H+ (max % remain)” value in assay [1] is 10%. Further, the “% Increase in Tail Withdrawal Latency” value in the assay with rats (setting [3]) is on record as “+++ (greater than or equal to 25% increase)”.

With `Cc1cccnc1N1CC=C(C(=O)Nc2ccc(S(=O)(=O)C(F)(F)F)cc2)CC1` [E, reference compound], in assay [1], the “human TRPV1 H+ (max % remain)” value was found to be 2%. Also, the “% Increase in Tail Withdrawal Latency” value with rats (setting [3]) is recorded as “+++ (greater than or equal to 25% increase)”.

For `CN1CC[C@]23c4c5ccc(O)c4O[C@H]2[C@@H](O)C=C[C@H]3[C@H]1C5` [Morphine], in the assay on rats (morphine 6 mg/kg i.p. in saline), the “% Increase in Tail Withdrawal Latency” value was “+++ (greater than or equal to 25% increase)”.

As to `CC(C)(C)c1ccc2c(c1)CC[C@H]2NC(=O)Nc1cccc2[nH]cnc12` [C, reference compound], in assay [2], the pIC50 (as a rule, the negative decadic logarithm of the IC50, by convention in mol/L) is 7.46. The “human TRPV1 H+ (max % remain)” value in assay [1] was determined as 1%. The “% Increase in Tail Withdrawal Latency” value in the assay with rats (setting [3]) is recorded as “+++ (greater than or equal to 25% increase)”.

For the compound `Cc1nc(Nc2cccc3c2C[C@H](O)CC3)oc1-c1ccc(C(F)(F)F)cc1` [D, reference compound], in assay [1], the “human TRPV1 H+ (max % remain)” value came out at 3%. The “% Increase in Tail Withdrawal Latency” value in the assay on rats (setting [3]) is listed as “+++ (greater than or equal to 25% increase)”.
